From US6602487B1, “Methods and tests for producing and for inhibiting coronary artery vasospasms” (Dimera Incorporated, priority 1997, dated 2003) come the findings set out here.

For the assay, the system named is coronary artery vascular muscle cells (VMC). Kind of assay: Subcellular Ca2+ and PKC localization and contraction of coronary VMC stimulated with serotonin plus U46619. The class given is cell-based, rhesus monkeys. The settings on record: VMC from treated monkeys, 10 μM serotonin plus 100 nM U46619. An excerpt:
Single VMCs from the left anterior descending, circumflex, and right coronary arteries of adult rhesus monkeys were isolated and studied both as freshly dispersed and as primary cultures. The short-term primary cultured cells (never passaged) maintain the characteristics of the source tissue for 2 3 weeks, including contraction, relaxation, receptors, and membrane electrical properties. VMCs were dissociated with collagenase and protease enzymes in a potassium glutamate solution (KG) that prevent loading with Na^+, Ca^2+, or Cl^− and results in a high proportion of viable, contracting cells (Self, D. A., et al., J. Vasc. Res. 31:359-366 (1994); Rusch., N. J., et al., Physiology and Pathophysiology of the Heart, 999-1010 (1995)). The cells prepared for culture were seeded at low density in cardiovascular culture solution for mammals, fifth generation (CV5M) on glass coverslips to facilitate selection of individual cells. VMC were used for experiments 7-14 days after attaching to coverslips.
Freshly dispersed or primary cultured VMCs on glass coverslips were placed in a chamber of laminar flow design and observed with a Zeiss Plan Neofluar 25×/0.80 water immersion objective. Ionic solution for mammals version 2 (ISM2) was continuously pumped through the chamber (at 1 ml/minute) to provide continuous equilibration and washout of drugs. After a 15 minutes equilibration period, VMC were loaded for 15 minutes at room temperature with 3 μM fluo 3 (Molecular Probes, Inc.) for sensing Ca^2− and for 10 minutes with […] hypericin (LC Laboratories) for reporting PKC. Individual VMC were stimulated by adding 20 μl of 10 μM serotonin plus 100 nM U46619 over the individual cell. After 15 seconds under no-flow conditions, continuous flow of ISM2 was reinstated and a chamber volume of approximately 300 μl was maintained. Fluorescent images were taken at 1, 2, 5, 10, 15, 20 and 30 minutes after stimulation for Ca^2+ and at 3, 4, 9, 16, 21 and 31 minutes for PKC to evaluate subcellular distribution of these signals, and to determine VMC contraction.
ISM2 contains (in mM): 100 NaCl, 4 NaHCO3, 0.5 NaH2PO4, 4.7 KCl, 1.8 CaCl2, 0.41 […], 50 HEPES (pH 7.37), and 5.5 dextrose, KG solution consists of (in mM); 140 K-glutamate, 16 NaHCO3, 0.5 NaH2PO4, 30 HEPES, and 16.5 dextrose at pH 7.3. CVSM consists of. 4.0 mM L-glutamine, 10 μg/ml ciprofloxacin (Miles Pentex/Bayer Corporation), 50 mM HEPES (pH 7.3), and 16 mM NaHCO3 dissolved in 85% MEM-Earle's'salts and 15% horse serum. Phenol red, known to have estrogenic activity, was omitted from all solutions.
As discussed above, the monkeys were implanted with subdermal sylastic tubing containing estrogen (E) progesterone (P) or MPA. The first step in each of the three groups was to implant sylastic tubing containing E. Two weeks later, either P or MPA were additionally implanted and maintained for another 4 weeks (6 weeks total). In the withdrawal (W) group, the E tube was withdrawn, and no tubes were implanted for the last 4 weeks.

Turning to `CC(=O)[C@H]1CC[C@H]2[C@@H]3CCC4=CC(=O)CC[C@]4(C)[C@H]3CC[C@]12C` [P, progesterone], the “whole cell Ca2+ (fluo 3) fluorescence after stimulation” value (FIG. 3) is on record as “increased significantly over control only at 1 minute”. Besides, for the setting “FIG. 4”, the “peripheral-to-central Ca2+ ratio after stimulation” value is “too small to be significant”. Moreover, for the setting “FIG. 5”, the “PKC signal after stimulation” value is recorded as “failed to change PKC loci or intensity significantly from control values”. In addition, the “peripheral-to-central PKC ratio after stimulation” value (FIG. 6) is given as “never significantly different from control”. Also, the “VMC contractions (cell width) after stimulation” value (FIG. 7) was “significantly different from 0-min controls only at 3 and 4 minutes”.
